Source: paper PMC9146984, “A Novel Proline-Rich Cathelicidin from the Alpaca Vicugna pacos with Potency to Combat Antibiotic-Resistant Bacteria: Mechanism of Action and the Functional Role of the C-Terminal Region” (Membranes, 2022)
Values after ≈ are worked out from the molar mass of the structure shown. Read-outs that look alike come from different tables or passages of the source. Where a SMILES comes first, the peptide text is derived from it.

How the values were obtained:
[1] = system: VicBac[1–22]-resistant E. coli MDR 1057 strain; conditions: Mueller-Hinton broth supplemented with 0.9% NaCl; strain selected 14 days with VicBac[1-22]; cross-resistance
Description: (§1) Bacterial test cultures were grown in the Mueller-Hinton broth (MH; Sigma, St. Louis, MO, USA) at 37 °C to mid-log phase and then diluted with the 2× MH medium supplemented with 1.8% NaCl or without salt so that to reach a final cell concentration of 10^6 CFU/mL. 50 µL of the obtained bacterial suspension were added to aliquots of 50 µL of the peptide solutions serially diluted with sterilized 0.1% bovine serum albumin (BSA) in 96-well flat-bottom polystyrene microplates (Eppendorf #0030730011, Hamburg, Germany). […] To verify MIC values, the respiratory activity of the bacteria was determined. Briefly, 20 µL of 0.1 mg/mL resazurin (a redox indicator; Sigma, St. Louis, MO, USA) was added to the wells after 24 h of incubation, and the plate was incubated for an additional two hours. The reduction of resazurin to resorufin was measured. […] The results were expressed as the median values determined based on at least three independent experiments performed in triplicate.
(§2) Resistance induction experiments were performed using the previously described method. Briefly, on day one, the overnight culture of wild-type bacteria was diluted with the 2× MH broth supplemented with 1.8% NaCl to reach a final cell concentration of 10^6 CFU/mL. 50 µL of the obtained bacterial suspension were added to aliquots of 50 µL of the peptide solutions serially diluted with the sterilized 0.1% BSA in 96-well flat-bottom polystyrene microplates. After incubation for 20 ± 2 h at 37 °C and 950 rpm, MICs were determined as described above. For each subsequent daily transfer, 2–4 μL of the inoculum taken from the first well containing a sub-inhibitory drug concentration were diluted with 2 mL of the fresh 2× MH broth supplemented with 1.8% NaCl. […] 14 repeated passages in the presence of antimicrobial agents were made for each bacterial strain during the experiment. Bacteria that grew at the highest concentration of AMPs on the final day were passaged a further 3 times on drug-free agar plates before determining the final MIC value.

[2] = system: E. coli MDR CI 1057; conditions: Mueller-Hinton broth supplemented with 0.9% NaCl
Description: as §1, §2

[3] = system: human embryonic kidney cells (HEK293T); assay: Cytotoxicity (MTT assay); type: cell-based
Description: (§3) Hemolytic activity of the peptides was tested against the fresh suspension of human red blood cells (hRBC) using the hemoglobin release assay as described previously. Two experiments were performed with the hRBC from blood samples of independent donors. The quantitative data were represented as average means with standard deviations. The colorimetric 3-(4,5-dimethylthiazol-2-yl)-2,5-diphenyltetrazolium bromide (MTT) dye reduction assay was used to determine the cytotoxicity of the peptides against transformed human embryonic kidney cells (HEK293T). 10^4 cells per well in Dulbecco’s modified Eagle’s medium (DMEM/F12) supplemented with 10% fetal bovine serum (FBS; Invitrogen, Waltham, MA, USA) were placed into 96-well plates and then cultured in the CO2-incubator (5% CO2, 37 °C). After the media were removed, the peptides were dissolved in 100 µL of the same medium and added to cell cultures at different final concentrations. 20 h later, 20 μL of MTT (5 mg/mL; Sigma, St. Louis, MO, USA) was added to each well, and the plates were incubated for 4 h at 37 °C. Then, the media were discarded and a 100 µL dimethyl sulfoxide-isopropanol mixture at a ratio of 1:1 (v/v) was added to each well to dissolve the crystallized formazan. The absorbance at 570 nm was measured by a microplate reader AF2200 (Eppendorf, Hamburg, Germany). The optical density in the wells containing cells cultured without the peptides was assumed to represent 100% cell viability. Two independent experiments were performed for each peptide.

[4] = system: BW25113ΔsbmA expressing the control protein sfGFP; type: cell-based, Escherichia coli; conditions: same promoter J23119
Description: (§4) The reduction of resazurin to resorufin was measured.
(§5) A plasmid vector for the expression of sfGFP under the strong constitutive artificial promoter J23119 [33] was kindly provided by M.N. Baranova (Figure S2A). This plasmid was used for the preparation of the complementation plasmids overexpressing two SbmA variants in the SbmA-deficient E. coli strain. The plasmids were obtained by ligase-independent cloning procedure. Briefly, DNA parts were produced by PCR-amplification of the vector and target sbmA gene from wild-type E. coli MDR 1057 or VicBac[1–22]-resistant strain (Figure S2B). The DNA fragments purified by gel electrophoresis and having 22–23 bp overhangs were mixed with molar ratios of 2:1 (insert: linearized vector) and were subsequently transformed into chemically competent E. coli DH10B cells. Target plasmids were isolated from individual clones and then analyzed by DNA sequencing.

[5] = system: BW25113ΔsbmA with plasmid-borne mutant SbmA bearing the tetrapeptide deletion; type: cell-based, Escherichia coli; conditions: promoter J23119, pUC vector
Description: as §4, §5

[6] = system: BW25113ΔsbmA with plasmid-borne wild-type SbmA; type: cell-based, Escherichia coli; conditions: promoter J23119, pUC vector
Description: as §4, §5

[7] = system: E. coli BW25113 ΔmdtM; type: cell-based, Escherichia coli; conditions: Mueller–Hinton broth, 24 h, 37 °C, median
Description: as §4

[8] = system: E. coli BW25113 ΔsbmA; type: cell-based, Escherichia coli; conditions: Mueller–Hinton broth, 24 h, 37 °C, median
Description: as §4

[9] = system: E. coli BW25113 ΔompF; type: cell-based, Escherichia coli; conditions: Mueller–Hinton broth, 24 h, 37 °C, median
Description: as §4

[10] = system: E. coli BW25113; type: cell-based, Escherichia coli; conditions: BW25113, 24 h
Description: as §4

[11] = system: E. coli MDR 1057; conditions: selection by VicBac[1–22], stable after three passages without peptide
Description: Resistance induction experiments were performed using the previously described method. Briefly, on day one, the overnight culture of wild-type bacteria was diluted with the 2× MH broth supplemented with 1.8% NaCl to reach a final cell concentration of 10^6 CFU/mL. 50 µL of the obtained bacterial suspension were added to aliquots of 50 µL of the peptide solutions serially diluted with the sterilized 0.1% BSA in 96-well flat-bottom polystyrene microplates. After incubation for 20 ± 2 h at 37 °C and 950 rpm, MICs were determined as described above. For each subsequent daily transfer, 2–4 μL of the inoculum taken from the first well containing a sub-inhibitory drug concentration were diluted with 2 mL of the fresh 2× MH broth supplemented with 1.8% NaCl. […] Bacteria that grew at the highest concentration of AMPs on the final day were passaged a further 3 times on drug-free agar plates before determining the final MIC value.

[12] = system: human red blood cells (hRBC); assay: Hemolysis (hemoglobin release assay); type: cell-based; conditions: 1.5 h incubation (Figure 3C)
Description: as §3, with “The optical density in the wells containing cells cultured without the peptides was assumed to represent 100% cell viability. Two independent experiments were performed for each peptide.” left out

[13] = system: E. coli ML-35p cytoplasmic membrane; assay: Cytoplasmic membrane permeabilization (ONPG hydrolysis); type: cell-based, Escherichia coli; conditions: PBS, 37 °C, OD405, 2.5 mM ONPG; two independent experiments
Description: To examine the ability of the peptides to affect the barrier function of the cytoplasmic bacterial membrane, we slightly modified the previously described procedure with the use of the E. coli ML-35p strain constitutively expressing cytoplasmic β-galactosidase but lacking lactose permease. The state of the E. coli ML-35p inner membrane was assessed based on its permeability to chromogenic marker o-nitrophenyl-β-D-galactopyranoside (ONPG, AppliChem, Darmstadt, Germany), which is the β-galactosidase substrate. The cells were incubated in the trypticase soy broth (TSB) for 16 h at 37 °C, washed three times with phosphate-buffered saline (PBS, pH 7.4) to remove residual growth media, adjusted to the concentration of 2.5 × 10^8 CFU/mL, and stored on ice until used. The assay was performed in PBS as well. The final concentration of E. coli ML-35p cells was 2.5 × 10^7 CFU/mL. The concentration of ONPG was 2.5 mM. Peptide samples were placed in the wells of a 96-well plate with a non-binding surface (NBS, Corning #3641), and the optical density (OD) of the solution rose due to the appearance of o-nitrophenol was measured at 405 nm using a microplate reader AF2200 (Eppendorf, Hamburg, Germany). The final volume in each well was 200 µL. Assays were performed at 37 °C under stirring at 500 rpm. Control experiments were performed under the same conditions without adding a peptide. Two independent experiments were performed, and the curve pattern was similar.

Compound: CC[C@H](C)[C@H](NC(=O)[C@H](CCCNC(=N)N)NC(=O)[C@@H]1CCCN1C(=O)[C@@H]1CCCN1C(=O)[C@@H](NC(=O)[C@H](CCCNC(=N)N)NC(=O)[C@@H]1CCCN1C(=O)[C@H](CCCNC(=N)N)NC(=O)[C@@H]1CCCN1C(=O)[C@@H](NC(=O)[C@H](CCCNC(=N)N)NC(=O)[C@@H]1CCCN1C(=O)[C@H](CCCNC(=N)N)NC(=O)[C@@H]1CCCN1C(=O)[C@H](CC(C)C)NC(=O)[C@H](CCCNC(=N)N)NC(=O)[C@@H]1CCCN1C(=O)[C@H](CCCNC(=N)N)NC(=O)[C@H](CCCNC(=N)N)NC(=O)[C@@H](NC(=O)[C@H](CCCNC(=N)N)NC(=O)[C@@H](N)CCCNC(=N)N)[C@@H](C)CC)C(C)C)[C@@H](C)CC)C(=O)O [VicBac[1-22]] (H-RRIRRPRLPRPRVPRPRIPPRI-OH)
- Minimum inhibitory concentration E.coli MDR 1057 14 days with VicBac [1-22] [1]: > 128 µM
- Minimum inhibitory concentration E.coli MDR 1057 14 days w/o AMP ([2]; after 14 passages without antimicrobial agents): 1 µM (≈ 2.81 µg/mL)
- Minimum inhibitory concentration E.coli MDR 1057 0 days ([2]; before passages): 1 µM (≈ 2.81 µg/mL)
- moderate cytotoxic activity against human HEK293T cells [3]: not
- MIC, control strain BW25113ΔsbmA expressing sfGFP [4]: 8 µM (≈ 22.5 µg/mL)
- MIC, BW25113ΔsbmA with plasmid-borne mutant SbmA (tetrapeptide deletion) [5]: 8 µM
- MIC, BW25113ΔsbmA with plasmid-borne wild-type SbmA [6]: 1 µM
- Minimum inhibitory concentration, E. coli strain ΔmdtM ([7]; 0.9% NaCl: +): 2 µM (≈ 5.62 µg/mL)
- Minimum inhibitory concentration, E. coli strain ΔmdtM ([7]; 0.9% NaCl: −): 4 µM (≈ 11.2 µg/mL)
- Minimum inhibitory concentration, E. coli strain ΔsbmA ([8]; 0.9% NaCl: +): 16 µM (≈ 45 µg/mL)
- Minimum inhibitory concentration, E. coli strain ΔsbmA ([8]; 0.9% NaCl: −): 4 µM (≈ 11.2 µg/mL)
- Minimum inhibitory concentration, E. coli strain ΔompF ([9]; 0.9% NaCl: +): 8 µM (≈ 22.5 µg/mL)
- Minimum inhibitory concentration, E. coli strain ΔompF ([9]; 0.9% NaCl: −): 2 µM (≈ 5.62 µg/mL)
- Minimum inhibitory concentration, E. coli strain BW25113 [10]: 2 µM (≈ 5.62 µg/mL)
- MIC value after 10 passages subjected to selection [11]: > 128 µM

Compound: Melittin [reference compound]
- concentration at which almost all cells were completely lysed [12]: < 4 µM
- concentration at which almost all cells were completely lysed ([3]; HEK293T, 20 h incubation, MTT (Figure 3D)): < 4 µM
- effect on E. coli ML-35p cytoplasmic membrane permeability for ONPG [13]: significant damage
